According to US11246961B2, “Engineered scaffolds for vascularized tissue repair” (The Regents of the University of California, priority 2016, dated 2022):

Legend:
HMVECs = test: flow cytometry ligand-cell binding, HMVECs; design: species or system human; settings: biotinylated ligand 1 μM, streptavidin-phycoerythrin
Description: (§1) FIG. 10 presents flow cytometry data from an assay of binding affinity of LXW7 and GRGD (SEQ ID NO: 1) to different cell types. Tests included EPCs/ECs from different sources, including HECFCs (A), HCAECs (B), HMVECs (C), and THP-1 monocytes (D), Platelets (E), as well as K562 cells engineered to highly express αvβ3 (αvβ3-K562, F), and αIIbβ3 (αIIbβ3-K562, G). Cells were incubated with the LXW7-bio, GRGD-bio (SEQ ID NO: 1), or D-Biotin peptide and subsequently incubated with streptavidin-phycoerythrin. Flow cytometry analysis was performed to determine the binding affinity of the ligands. Samples treated with D-biotin were used as negative controls.
(§2) LXW7-bio (1 μM) was incubated with 3×10^5 HECFCs, HCAECs, HMVECs, αvβ3-K562 and αIIbβ3-K562 cells and THP-1 monocytes and 1×10^8 platelets in binding buffer (HEPES containing 10% FBS) on ice for 30 minutes. The samples were washed three times with DPBS containing 1% FBS and incubated with 2 μg/ml of streptavidin-phycoerythrin on ice for 30 minutes and then washed with DPBS. Samples were analyzed on a BD Fortessa LSR Cell Analyzer and further data analysis and gating were performed using FlowJo software (Treestar, Inc.).

HCAECs = test: attachment assay on ligand treated culture surfaces, HCAECs; format: cell-based, human; settings: 10 minutes
Source text: Ligands LXW7, LXY30, and LLP2A were synthesized as in U.S. Pat. No. 9,073,974. Biotinylated LXW7 (LXW7-bio) and biotinylated GRGD (GRGD-bio) (SEQ ID NO: 1) were synthesized using established solid phase peptide synthesis protocols (Xiao et al. (2010) Mol Cancer Therapeutics 9:2714). Peptide-bio was designed to have biotin attached to the side chain of Lys, with two hydrophilic linkers between peptide and Lys (biotin). To modify culture surface with ligands, target culture wells in a 24-well plate were coated with 500 μL of 20 μg/mL Avidin (Thermo Fisher Scientific), and incubated for 1 hour at 37° C. Avidin coated wells were rinsed three times with DPBS and were treated with 500 μL molar equivalents (2 μM) of D-biotin (Thermo Fisher Scientific), LXW7-bio, or GRGD-bio (SEQ ID NO: 1). After 1 hour, the wells were washed three times with DPBS and blocked with 1% bovine serum albumin (BSA; Thermo Fisher Scientific) for 1 hour. After the wells were rinsed three times with DPBS, for cell attachment assay, 5×10^4 HCAECs and THP-1 monocytes suspended in the respective maintenance medium were added to the wells and incubated for 10 minutes or 16 hours at 37° C., 5% CO2, respectively. After each time point the wells were washed three times with DPBS, and the adhered cells were fixed in 10% formalin (Azer Scientific) for 20 minutes. For platelets attachment assay, the PRP was centrifuged, and the platelet pellet was resuspended in 1% BSA with 2 mM CaCl2 and 1 mM MgCl2 to achieve a final concentration of 1×10^8 platelets/mL, added to the wells at a density of 5×10^7 platelets/cm^2, and incubated for 16 hours at 37° C., 5% CO2. The wells were washed three times with DPBS, and the adhered cells were fixed in 10% formalin for 20 min. The HCAECs wells were washed with DPBS again and blocked for 1 hour with 1% BSA. An additional wash was performed, and the plate was incubated overnight with mouse anti-PECAM-1 antibody (1:100; Abcam) in 1% BSA at 4° C. […] Five images were randomly taken from each sample and quantification of images was performed using the Image J software (NIH).

integrin αIIbβ3 = molecular target: T1, integrin αIIbβ3 (Homo sapiens, UniProt P05106+P08514); test: flow cytometry ligand-cell binding, αIIbβ3-K562 cells; settings: K562 cells highly expressing αIIbβ3
T1 construct: expressed in transfected cells; host or cells: K562 myeloid leukemia cells (αIIbβ3-K562), provided by Dr. Jennifer Cochran (Stanford University)
Description: as §1
Human coronary artery endothelial cells (HCAECs) were purchased from ATCC. Human cardiac microvascular endothelial cells (HMVECs) were purchased from Lonza. THP-1 monocytes were obtained from Dr. Pamela Lein (University of California, Davis). […]
LXW7-bio (1 μM) was incubated with 3×10^5 HECFCs, HCAECs, HMVECs, αvβ3-K562 and αIIbβ3-K562 cells and THP-1 monocytes and 1×10^8 platelets in binding buffer (HEPES containing 10% FBS) on ice for 30 minutes. […] Samples were analyzed on a BD Fortessa LSR Cell Analyzer and further data analysis and gating were performed using FlowJo software (Treestar, Inc.).

THP-1 monocytes = test: flow cytometry ligand-cell binding, THP-1 monocytes; settings: biotinylated ligand 1 μM
Description: as §1, §2

platelets = test: platelet-bead binding assay; format: cell-based; settings: 10 minutes, 30 minutes or 2 hours
Description: HECFCs, HCAECs and HMVECs were cultured in EC expansion medium EGM-2 and THP-1 monocytes were cultured in RPMI Medium 1640 (Gibco) supplemented with 10% fetal bovine serum (FBS, Hyclone) and 0.05 mM 2-mercaptoethanol (Sigma). αvβ3-K562 cells and αIIbβ3-K562 cells were cultured in RPMI Medium 1640 plus 10% FBS. Platelet-rich plasma (PRP) was obtained from UC Davis Medical Center (Sacramento, Calif.). Fresh PRP (260×10^3 platelets/μL) was centrifuged, and the pellets were resuspended in Dulbecco's Phosphate Buffer Saline (DPBS; Hyclone) containing 2 mM CaCl2) and MgCl2 to a final concentration of 1×10^8 platelets/mL.
HECFCs, HCAECs, HMVECs and THP-1 monocytes were cultured in their respective growth medium as described in Example 1. For cell bead-binding assay, 6×10^5 HECFCs, HCAECs, HMVECs or THP-1 monocytes in 2 mL of their respective culture medium were added to an ultra-low attachment 35-mm petri dish (Corning Incorporated) followed by resin beads (Lam et al. (1991) Nature 354:82). The dishes were incubated in a shaking incubator at 37° C., 5% CO2 for various time points at 40 rpm. For platelet bead-binding assay, the platelets isolated as described in Example 1 were added to an ultra-low attachment 35-mm petri dish and incubated with the resin beads in the shaking incubator as described for the cell-bead binding assy. […]

cGRGDdvc [LXW7]
binding affinity to HMVECs by flow cytometry (HMVECs): higher binding affinity with different types of EPCs/ECs than conventional GRGD peptide | attachment of HCAECs on ligand treated surface (HCAECs; avidin + biotinylated ligand 2 μM): bound to both LXW7 and GRGD | number of attached HCAECs, LXW7 vs GRGD surface (HCAECs; quantified): attracted more HCAECs than the GRGD-modified | binding to αIIbβ3-K562 cells by flow cytometry (integrin αIIbβ3): very low binding | binding to THP-1 monocytes by flow cytometry (THP-1 monocytes): did not bind to THP-1 monocytes | attachment of platelets to beads displaying LXW7 (platelets): did not support effective attachment
